Experimental data taken from patent US20240101685A1, “NEAR INFRARED PHOTOIMMUNOTHERAPY (NIR-PIT) COMBINATION THERAPY TO TREAT CANCER” (THE UNITED STATES OF AMERICA, as represented by the …, priority 2021, published 2024).

Key:
[1] = IR700 at 689 nm; Photofrin 630 nm; Foscan 652 nm; NPe6/Laserphyrin 654 nm; cited from earlier work
[2] = test system: MC38-luc tumor; test: In vivo efficacy of L-NaAA alone; parameters: species or system mice
Description: (C) Luciferase activity calculated from BLI (n=10, mean±SEM; repeated measures two-way ANOVA followed by Tukey's test; N.S., not significant).

[3] = test system: LL/2-luc tumors; test: CD44-targeted NIR-PIT with or without L-NaAA; assay type: in vivo, C57BL/6 mice
Text: (§1) The images were taken pre- and post-NIR-PIT. ROIs were placed on the tumor. […] ROIs were placed over the entire tumor.

[4] = test system: MC38-luc tumors
Description: ROIs were placed over the entire tumor. […] (A) Treatment schedule.
as §1
Scout images were obtained to accurately locate the tumor.
Single-cell suspensions from tumor samples were pre-pared using following protocol. Whole tumors were incubated in the RPMI 1640 medium (Thermo Fisher Scientific) containing collagenase type IV (1 mg mL^−1; Thermo Fisher Scientific) and DNase I (20 μg mL^−1; Millipore Sigma, Burlington, MA) in 37° C. for 30 minutes, then gently cut with scissors and mashed with the back of the plunger of 3 mL syringe. The tissues were passed through a 70 μm cell strainer (Corning, Corning, NY). A total of 3.0×10^6 cells was stained and data for 5.0×10^5 cells were collected for each tumor. The cells were stained with anti-CTLA4 antibody (Clone; UC10-4B9) from Thermo Fisher Scientific. To distinguish live cells from dead cells, cells were also stained with LIVE/DEAD Fixable Dead Cell Stain (Thermo Fisher Scientific). The fluorescence of the cells was then analyzed with the flow cytometer (FACSLyric, BD Biosciences) and FlowJo software (FlowJo LLC). Dead cells were removed from analysis based on FSC, SSC, and staining with LIVE/DEAD Fixable Dead Cell Stain.

[5] = test system: MDAMB468 GFP-luc cells; test: In vitro NIR-PIT with reducing agents, PI staining; settings: 10 mM NaN3
Description: (§2) A431 GFP-luc or MDAMB468 GFP-luc cells (4×10^5) were seeded into 12-well plates, and incubated for 24 hours, and then exposed to media containing panitumumab-IR700 (10 μg mL^−1) for 1 hour at 37° C. […] NIR light (690 nm, 150 mW cm^−2, 1 or 2 J cm^−2 for A431 GFP-luc, 20 J cm^−2 for MDAMB468 GFP-luc) was irradiated to cancer cells. For flow cytometric analyses, the cells were collected with trypsin one hour after NIR light exposure. Cells were then stained with propidium iodide (PI, 1 μg mL^−1) at RT for 5 minutes. The fluorescence of the cells was then analyzed with a flow cytometer (FACSCalibur, BD Biosciences, San Jose, CA, USA) and FlowJo software (BD Biosciences).

[6] = test system: A431 GFP-luc tumor; test: Panitumumab NIR-PIT with or without L-NaAA; assay type: in vivo, athymic mice; settings: with L-NaAA
Text: as §1

[7] = test system: MOC2-luc tumors; test: CD44-targeted NIR-PIT with or without L-NaAA
Description: (§3) The APC was injected 6 days after inoculation of cancer cells into C57BL/6 mice. […] NIR light (690 nm, 150 mW cm-2, 50 J cm-2) was exposed on the next day. […] Upon NIR light exposure, the normal tissue adjacent to the tumor was covered with aluminum foil to ensure that the NIR light exposure is limited in tumor site. Dorsal fluorescence images of IR700 were obtained with the 700 nm fluorescence channel of the Pearl Imager (LI-COR Biosciences). The images were taken pre- and post-NIR-PIT. ROIs were placed on the tumor. The dorsal edema formation of treated mouse 1 day after NIR light irradiation was imaged by a camera. Acute treatment efficacy was evaluated with BLI analysis, in which, D-luciferin (3 mg mouse-1; Gold Biotechnology) was intraperitoneally injected into mice. Luciferase activity was analyzed with a BLI system (Biospace Lab) using relative light units. ROIs were placed over the entire tumor. The counts per minute of relative light units were calculated using M3 Vision Software (Biospace Lab) and converted to the percentage based on those before NIR-PIT using the following formula: [(relative light units after treatment)/(relative light units before treatment)×100(%)]. Bioluminescence im-ages were continually recorded until the onset of depilation-induced skin pigmentation precluded accurate measurement.

[8] = test system: MC38-luc tumors; test: CD44-targeted NIR-PIT with or without L-NaAA
Description: Photon counts were evaluated with the Photon Imager (Biospace Lab) using relative light units. ROIs were placed over the entire tumor. The counts per minute of relative light units were calculated using M3 Vision Software (Biospace Lab) and converted to the percentage based on those before NIR-PIT using the following formula: [(relative light units after treatment)/(relative light units before treatment)×100(%)]. Chemiluminescent images were continually recorded 1 and 3 hours after NIR-PIT.
as §3
Under pentobarbital anesthesia, MRI was performed on a 3-T scanner using an in-house 10-inch circle shaped mouse receiver coil array (Elition 3T; Philips Medical Systems, Best, Nether-lands) 1 day after NIR light exposure. Scout images were obtained to accurately locate the tumor. All mice underwent T2-weighted fat-saturation imaging (T2WI fat-sat) and short-TI inversion recovery imaging (STIR). All images were obtained in the coronal plane and T2WI fat-sat images were also obtained in the axial plane. All images were analyzed using Image J software, and 3D imaging were recon-structed. The high signal intensity area derived from each image in T2WI fat-sat and STIR was calculated by Image J.

[9] = test system: A431 GFP-luc cells; test: In vitro NIR-PIT with reducing agents, PI staining; settings: for cytotoxicity of Pan-PIT in the presence of NaN3: 10 mM NaN3
Description: as §2

[10] = IR700 with L-cysteine, NaN3 added
[11] = Description: Before and after each irradiation, the 700 nm fluorescence intensity was acquired by a fluorescence imager (Pearl Imager, LI-COR Bioscience, Lincoln, NE, USA). Pearl Cam Software (LI-COR Biosciences) was used for analyzing fluorescence. The same regions of interest (ROIs) were put on the solution in each tube, and then mean 700 nm fluorescence intensity was measured. The appearance of the tube before and after NIR light irradiation was imaged. All the experiments were carried out at RT.
[12] = test system: LL2-luc tumor; settings: IL15 1 ug i.p. preconditioning + anti-PD-L1-IR700 + NIR light 50 J/cm2
Description: Tumors were established in mice by administration of 5×10^5 LL2 cells s.c. Four days later, IL15 (1 ug i.p.) was administered, followed one day later with anti-PD-L1-IR700 (or vehicle control), followed with or without NIR light (50 J/cm2) another day later.

[13] = dose of 3 mg/kg for melanoma therapy; cited from earlier work
[14] = test system: mEERL-hEGFR cells; test: In vitro NIR-PIT, PI staining and MTT assay; assay type: cell-based, murine
Description: After washing with PBS, phenol-red-free RPMI 1640 medium was added. NIR light (690 nm) was irradiated to cancer cells with an ML7710 laser system (Modulight, Tampere, Finland) at a power density of 150 mW/cm^2. One hour after NIR-PIT, the cells were collected with trypsin, and stained with propidium iodide (PI, 1 μg/mL) at room temperature for 5 minutes, and then assessed for PI positivity on a BD FACSCalibur (BD Biosciences) using CellQuest software (BD Biosciences) using FlowJo software (FlowJo LLC). To assess cell viability, cell proliferation was evaluated by 3-(4,5-Dimethyl-2-thiazolyl)-2,5-diphenyl-2H-tetrazolium bromide (MTT) assay. Cells were incubated and treated, as described above. One hour after NIR-PIT, the medium was removed and 500 μl of MTT reagent (SIGMA Aldrich; 0.5 mg/ml) was added to each well. After 1 hour incubation, the supernatant was removed and 500 μL of 2-propanol was added to each well to dissolve the crystal formazan dye. After transferring 100 μL of the supernatant to 96 well plate each, absorbance was measured at 570 nm on a microplate reader (Synergy™ H1). For relative quantification, the value of absorbance in each group was normalized to that in the control group.

[15] = test system: mEERL-hEGFR tumors; test: Histologic analysis (H-E staining) 1 hour after NIR-PIT; assay type: in vivo, C57BL/6 mice; settings: tumors harvested 1 hour after light exposure
Text: Tumors from mEERL-hEGFR, MC38-luc, and LLC tumors were harvested, formalin-fixed and paraffin-embedded, and sectioned at […]. Following standard hematoxylin and eosin (HE) staining, bright-light photomicrographs were obtained using Mantra Quantitative Pathology Workstation (PerkinElmer).

[16] = test system: mEERL-hEGFR tumors; parameters: tumor volume: dose or concentration left out as unconfirmed
Description: The lower part of the body of the mice was shaved before NIR light irradiation and image analysis. Tumors were established via subcutaneous injection of 1×10^6 cells in the right or both side of dorsal flank for each model. Mice with tumors reaching approximately 50-100 mm^3 in volume were used for the experiments. Mice were monitored each day, and tumor volume (tumor volume=length×width^2×0.5) was measured twice a week until the tumor volume reached 2,000 mm^3, whereupon the mice were euthanized with inhalation of carbon dioxide gas. In a bilateral model, the mice were euthanized when either tumor reached its humane endpoint. Tumor disappearance for 4 weeks or longer after treatment was defined as complete remission.
The mixed antibody/APC was injected 6 days after inoculation of cancer cells into C57BL/6 mice. Twenty-four hours after administration, NIR light (690 nm, 150 mW/cm^2) was irradiated to tumors at 50 J/cm^2 in all groups. The surface of the mouse other than the tumor was covered with aluminum foil. […] In the bilateral model, NIR light (690 nm, 150 mW/cm^2) was given only to right-sided tumors at 50 J/cm^2 and the remainder of the mouse (including the left-sided tumor) was covered with aluminum foil during irradiation.

[17] = CD44-targeted NIR-PIT with L-NaAA
[18] = with or without L-NaAA injection
[19] = 1 day after CD44-targeted NIR-PIT

Question: Which extinction coefficient [1] does the source give for `Oc1cccc(-c2c3nc(c(-c4cccc(O)c4)c4ccc([nH]4)c(-c4cccc(O)c4)c4nc(c(-c5cccc(O)c5)c5ccc2[nH]5)CC4)C=C3)c1` [Foscan®, meta-tetrahydroxyphenylchlorin] here?
Answer: 22000 M⁻¹ cm⁻¹

Question: Which “tumor growth (BLI)” value [2] does the source give for `O=C1O[C@H]([C@@H](O)CO)C([O-])=C1O.[Na+]` [L-NaAA, L-sodium ascorbate] here?
Answer: not to affect tumor growth

Question: What about the body weight [3, 17] of the same compound?
Answer: no significant difference in body weight was detected

Question: And the “antitumor effects of CD44-targeted NIR-PIT (BLI)” value ([3]; with L-NaAA)?
Answer: not changed

Question: What about the “edema formation 1 day after NIR-PIT” value [3, 18] of the same compound?
Answer: no edema was detected

Question: And the edema formation ([4]; 1 day after CTLA4-targeted NIR-PIT)?
Answer: suppressed both macroscopically and by MRI

Question: And the “BLI intensity by day 6 post NIR-PIT” value ([4]; CTLA4-IR700 50 μg, NIR 50 J cm-2, L-NaAA 80 mg mouse-1 i.p.)?
Answer: no difference was observed between the two groups

Question: What about the ROS ([4]; CTLA4-targeted NIR-PIT with vs without L-NaAA) of the same compound?
Answer: higher ROS was also detected in the NIR-PIT without L-NaAA group

Question: What about the “body weight the day after NIR-PIT” value ([4]; NIR-PIT with L-NaAA group) of the same compound?
Answer: significant lower weight

Question: And the “CTLA4hi cells among total live cells” value ([4]; three hours after CTLA4-targeted NIR-PIT)?
Answer: selectively depleted in both NIR-PIT with and without L-NaAA groups

Question: What about the “cytotoxicity of Pan-PIT in the presence of NaN3” value (shortened to “cytotoxicity of Pan-PIT”) [5] of the same compound?
Answer: restored cytotoxicity of Pan-PIT suppressed by NaN3

Question: And the “efficacy of pan-PIT (BLI)” value [6]?
Answer: did not affect the efficacy of pan-PIT

Question: What about the body weight [7, 17] of the same compound?
Answer: no significant difference in body weight was detected

Question: And the “antitumor effects of CD44-targeted NIR-PIT (BLI)” value ([7]; with L-NaAA)?
Answer: not changed

Question: And the “edema formation 1 day after NIR-PIT” value [7, 18]?
Answer: no edema was detected

Question: What about the “edema on T2WI fat-sat MRI” value [8, 19] of the same compound?
Answer: minimal edema was observed just around the treated tumors

Question: What about the “high signal intensity area on T2WI fat-sat images” value [8, 19] of the same compound?
Answer: significantly larger in the group treated without L-NaAA

Question: And the “ROS (chemiluminescence imaging with L-012)” value ([8]; CD44-targeted NIR-PIT with vs without L-NaAA)?
Answer: significantly lower intensity (lower ROS) on CLI

Question: And the body weight ([8]; NIR-PIT with vs without L-NaAA)?
Answer: No significant difference in body weight

Question: What about the “edema formation 1 day after NIR-PIT” value [8, 18] of the same compound?
Answer: no edema was detected

Question: For `N[C@@H](CS)C(=O)O` [L-cysteine], which “cytotoxicity of Pan-PIT” value [9] is on record?
Answer: could not reverse the effects of NaN3

Question: What about the “cytotoxic damage of Pan-PIT, low concentration of reducing agent” value ([9]; L-NaAA low or pharmacological concentrations, L-cysteine 0.001 mM) of the same compound?
Answer: slightly enhanced the cytotoxic damage

Question: And the “cytotoxic damage of Pan-PIT, high concentration of reducing agent” value ([9]; L-NaAA over 1 mM, L-cysteine 0.1 mM or higher)?
Answer: compromised the cytotoxicity

Question: For `C=Cc1c(C)c2cc3nc(c(CC(=O)N[C@@H](CC(=O)[O-])C(=O)[O-])c4[nH]c(cc5nc(cc1[nH]2)C(C)=C5CC)c(C)c4C(=O)[O-])[C@@H](CCC(=O)[O-])[C@@H]3C.[Na+].[Na+].[Na+].[Na+]` [NPe6/Laserphyrin®, mono-L-aspartylchlorin e6], which extinction coefficient [1] is on record?
Answer: 40000 M⁻¹ cm⁻¹

Question: Which “cytotoxicity of Pan-PIT” value [9] does the source give for `[N-]=[N+]=[N-]` [NaN3, Sodium azide, reference compound] here?
Answer: suppression of NIR-PIT cytotoxicity

Question: What about the “ligand cleavage (remaining IR700)” value [10] of the same compound?
Answer: ligand cleavage decreased

Question: Which “solubility of Pc 3 after light exposure” value [11] does the source give for `C[Si](C)(CCC[N+](CCCS(=O)(=O)O)(CCCS(=O)(=O)O)CCCS(=O)(=O)O)O[Si]1(O[Si](C)(C)CCC[N+](CCCS(=O)(=O)O)(CCCS(=O)(=O)O)CCCS(=O)(=O)O)n2c3c4ccccc4c2N=C2N=C(N=c4c5ccccc5c(n41)=NC1=NC(=N3)c3ccccc31)c1ccccc12` [Pc 3, Bis{3-[Tris(3-Sulfopropyl)]Ammoniopropyldimethylsilvloxide} Silicon Phthalocyanine] here?
Answer: dramatically changed its solubility

Question: Which survival [12] does the source give for IL-15: immunoactivator interleukin here?
Answer: increased survival

Question: And the tumor volume [12]?
Answer: substantially reduced tumor volume

Question: Which “patients with gastrointestinal symptoms (irAE)” value [13] does the source give for Ipilimumab: anti-CTLA4 antibody here?
Answer: about 40%

Question: For Photofrin®, which extinction coefficient [1] is on record?
Answer: 1200 M⁻¹ cm⁻¹

Question: With pan-IR700 as the compound, how does the “cancer cell death (incorporation of propidium iodine and MTT assay)” value ([14]; APC 10 μg/mL 1 h, NIR light 690 nm, read 1 h after NIR-PIT) read?
Answer: cancer cell death was induced by NIR-PIT in an NIR light-dose dependent manner

Question: And the “cell viability, APC alone” value ([14]; without NIR light)?
Answer: Neither NIR light alone nor panitumumab IR700 alone induced significant alterations in cell viability

Question: With panitumumab NIR-PIT as the compound, how does the “histologic change of tumor cells (H-E staining)” value [15] read?
Answer: swelling and vacuolation of the tumor cell

Question: And the tumor volume ([16]; mixed antibody/APC i.v., NIR light 50 J/cm^2 once 1 day later)?
Answer: not significantly decreased

Question: What about the “mice in which the tumor was cleared” value ([16]; n=12-13) of the same compound?
Answer: 1/12
